Laboratory results from patent US9243247B2, “Composition for promoting apoptosis or inhibiting cell growth, comprising epstein-barr virus microrna” (Catholic University Industry Academic Cooperation Foundation, priority 2011, dated 2016).

Key:
Assay type in all cases: cell-based
AGS cell strain [1] = assay: Measurement of apoptosis (Annexin V staining, FACS); settings: for Relative Apoptotic cell: AGS, mimic 10 nM, 10 uM 5-FU 24 h after transfection, then 48 hours, Annexin V, relative to scrambled control (=1), n=9; for effect on cell growth and apoptosis (summary statement): mimics transfected to AGS, tumor cell strain not infected with EBV
Description: Immediately after the AGS cell strain, which is an EBV-negative cell strain, was divided was divided into a 6-well plate such that 2×10^5 AGS cells were allocated to each well, a synthesized miRNA (10 nM) was transfected by using G-fectin and the resulting mixture was cultured at 37 t in an incubatorTwenty four hours after the transfection, 10 uM of 5-FU was treated and the resulting mixture was cultured in an incubator at 37° C. for 48 hours. The cells were detached by using Trypsin-EDTA and washed with PBS two times. Afterwards, the cells were treated with a PE Annexin V Apoptosis Detection Kit and the changed ratio of apoptotic cell was investigated by FACS (FIG. 7).
Immediately after the AGS cell strain, which is an EBV-negative cell strain, is divided into a 6-well plate such that 2×10^5 AGS cells were allocated to each well, a synthesized miRNA (10 nM) was transfected by using G-fectin and the resulting mixture was cultured at 37° C. Twenty four hours after the transfection, 10 uM of 5-FU, which is an anti-cancer agent, was treated and the resulting mixture was cultured in an incubator at 37° C. for 48 hours. The cells were detached by using Trypsin-EDTA and washed with PBS two times. Afterwards, the cells were treated with a PE Annexin V Apoptosis Detection Kit and the ratio of cells where apoptosis took place was measured by FACS.

AGS cell strain [2] = assay: Cell growth test (CCK-8 assay) after transfection of BART miRNA mimics; settings: 72 hours after transfection; for Relative Cell Growth: mimic 10 nM, relative to scrambled control (=1)
Description: An AGS cell strain (Korean Cell Line Bank), which is a stomach cancer cell strain, was cultured in an RPMI1640 (Gibco) culture medium including 10% fetal bovine serum. Mature type synthesized BART miRNAs were transfected to the AGS cell strain by using G-fectin (Genolution) according to a protocol of the manufacture.
To investigate the effect of individual EBV BART miRNAs on the AGS cell strain, the synthesized miRNAs were transfected to the AGS cell strain and, after 72 hours, cells were counted by CCK-8 assay.
Immediately after the AGS cell strain, which is an EBV-negative cell strain, was divided into 96-well plate having 1×10^3 cells/well, a synthesized miRNA (10 nM) was transfected by using G-fectin. After the transfection, according to the experimental objective, the cells were cultured at 37° C. in an incubator, and then CCK-8 was divided among the wells by allocating 10 μl of CCK-8 to each well and the resulting mixture was cultured in an incubator at 37° C. for two hours. Then, the light absorbance was measured with an ELISA measuring instrument.
By the method described in Example 3, miR-BART5-5p mimic or miR-BART15-3p mimic (10 nM) were transfected to the AGS cell strain, and the effect thereof on cell growth was investigated over time.
miR-BART5-5p, miR-BART15-3p, and miR-BART20-3p were transfected to the AGS cell strain (1×10^3 cells/well) in a concentration of 1, 3, 10, and 30 nM, and the effect on cell growth was investigated. Immediately after the AGS cell strain was divided into a 96-well plate such that 1×10^3 AGS cells were allocated to each well, a synthesized miRNA was transfected by using G-fectin. Seventy two hours after the transfection, CCK-8 was divided among the wells by allocating 10 μl of CCK-8 to each well, and the resulting mixture was cultured at 37° C. in an incubator for two hours.

AGS cell strain [3] = assay: Effect on cell cycle (propidium iodide staining, FACS, sub G1); settings: mimic 10 nM, 10 uM 5-FU 24 h after transfection, then 48 hours, relative to scrambled control (=1)
Description: The AGS cells were divided into a 96-well plate such that 2×10^5 AGS cells were allocated to each well, and synthesized miRNAs (10 nM) were transfected and cultured at 37° C. in an incubator. Twenty four hours after the transfection, 10 uM of 5-FU, which is an anti-cancer agent, was treated in one case or not treated in another case, and then the resulting mixture was cultured in an incubator at 37° C. for 48 hours. The cells were detached by using Trypsin-EDTA and washed with PBS two times.
Immediately after the AGS cell strains, which are EBV-negative cell strains, were divided into a 6-well plate such that 2×10^5 AGS cells were allocated to each well, a synthesized miRNA (10 nM) was transfected by using G-fectin and cultured at 37° C. in an incubator. Twenty four hours after the transfection, 10 uM of 5-FU was treated and the resulting mixture was cultured at 37° C. in an incubator for 48 hours. The cells were detached by using Trypsin-EDTA and washed with PBS two times. Afterwards, DNA was stained by propidium iodide staining and the ratio of cells where cell cycle was changed was investigated by FACS.

Substance | Relative Apoptotic cell (AGS cell strain [1]) | effect on cell growth and apoptosis (summary statement) (AGS cell strain [1]) | Relative Cell Growth (AGS cell strain [2]; n=9) | Relative Sub G1 (AGS cell strain [3]) | also measured
BART21-3p: EBV BART miRNA mimic, double stranded RNA; sense SEQ NO: 35, antisense SEQ NO: 36 (sense CUAGUUGUGCCCACUGGUGUUU; antisense AAACACCAGUGGGCACAACUAG; chemistry not given here) | 1.155 | inhibit cell growth and promote apoptosis | 1.215 | 0.965 | Relative Apoptotic cell (AGS cell strain [1]; listed as 21-3p): significantly higher
BART7-3p: EBV BART miRNA mimic, double stranded RNA; sense SEQ NO: 43, antisense SEQ NO: 44 (sense CAUCAUAGUCCAGUGUCCAGGG; antisense CCCUGGACACUGGACUAUGAUG; chemistry not given here) | 1.107 | – | 1.156 | 0.9393 | –
BART4-3p: EBV BART miRNA mimic, double stranded RNA; sense SEQ NO: 7, antisense SEQ NO: 8 (sense CACAUCACGUAGGCACCAGGUGU; antisense ACACCUGGUGCCUACGUGAUGUG; chemistry not given here) | 1.133 | inhibit cell growth and promote apoptosis | 1.065 | 0.755 | Relative Apoptotic cell (AGS cell strain [1]; listed as 4-3p): significantly higher
BART17-3p: EBV BART miRNA mimic, double stranded RNA; sense SEQ NO: 27, antisense SEQ NO: 28 (sense UGUAUGCCUGGUGUCCCCUUAGU; antisense ACUAAGGGGACACCAGGCAUACA; chemistry not given here) | 1.088 | inhibit cell growth and promote apoptosis | 0.7865 | 1.067 | Relative Apoptotic cell (AGS cell strain [1]; listed as 17-3p): significantly higher; Relative Cell Growth (AGS cell strain [2]; n=9, listed as miR-BART17-3p): inhibited cell growth; Relative Sub G1 (AGS cell strain [3]; listed as 17-3p): increased
BART10-3p: EBV BART miRNA mimic, double stranded RNA; sense SEQ NO: 59, antisense SEQ NO: 60 (sense UACAUAACCAUGGAGUUGGCUGU; antisense ACAGCCAACUCCAUGGUUAUGUA; chemistry not given here) | 0.8971 | – | 1.591 | 0.8394 | –
BART11-3p: EBV BART miRNA mimic, double stranded RNA; probably sense SEQ NO: 63, antisense SEQ NO: 64 (printed as BART11-5p) (sense ACGCACACCAGGCUGACUGCC; antisense GGCAGUCAGCCUGGUGUGCGU; chemistry not given here) | 1.058 | – | 0.9459 | 1.128 | –
BART2-5p: EBV BART miRNA mimic, double stranded RNA; sense SEQ NO: 85, antisense SEQ NO: 86 (sense UAUUUUCUGCAUUCGCCCUUGC; antisense GCAAGGGCGAAUGCAGAAAAUA; chemistry not given here) | 1.082 | – | 1.085 | 1.092 | –
BART20-3p: EBV BART miRNA mimic, double stranded RNA; sense SEQ NO: 75, antisense SEQ NO: 76 (sense CAUGAAGGCACAGCCUGUUACC; antisense GGUAACAGGCUGUGCCUUCAUG; chemistry not given here) | 1.416 | inhibit cell growth and promote apoptosis | 0.8577 | 1.618 | Relative Apoptotic cell (AGS cell strain [1]; listed as 20-3p): significantly higher; cell growth (AGS cell strain [2]; 30 nM): almost no cell growth; cell growth depending on mimic concentration (onset of inhibition) (AGS cell strain [2]; 1, 3, 10 and 30 nM): decreased cell growth, beginning at 10 nm; Relative Cell Growth (AGS cell strain [2]; n=9, listed as miR-BART20-3p): inhibited cell growth; Relative Sub G1 (AGS cell strain [3]; listed as 20-3p): increased
BART3-3p: EBV BART miRNA mimic, double stranded RNA; sense SEQ NO: 3, antisense SEQ NO: 4 (sense CGCACCACUAGUCACCAGGUGU; antisense ACACCUGGUGACUAGUGGUGCG; chemistry not given here) | 1.111 | – | 1.135 | 0.9648 | –
BART15-5p: EBV BART miRNA mimic, double stranded RNA; sense SEQ NO: 13, antisense SEQ NO: 14 (sense AGGGAAACAUGACCACCUGAAGUC; antisense GACUUCAGGUGGUCAUGUUUCCCU; chemistry not given here) | 1.022 | – | 0.9545 | 0.8195 | –
BART5-3p: EBV BART miRNA mimic, double stranded RNA; sense SEQ NO: 19, antisense SEQ NO: 20 (sense GUGGGCCGCUGUUCACCU; antisense AGGUGAACAGCGGCCCAC; chemistry not given here) | 1.17 | inhibit cell growth and promote apoptosis | 0.9583 | 0.9486 | –
BART22-3p: EBV BART miRNA mimic, double stranded RNA; sense SEQ NO: 55, antisense SEQ NO: 56 (sense UUACAAAGUCAUGGUCUAGUAGU; antisense ACUACUAGACCAUGACUUUGUAA; chemistry not given here) | 1.106 | – | 1.495 | 1.054 | –
BART7-5p: EBV BART miRNA mimic, double stranded RNA; sense SEQ NO: 41, antisense SEQ NO: 42 (sense CCUGGACCUUGACUAUGAAACA; antisense UGUUUCAUAGUCAAGGUCCAGG; chemistry not given here) | 1.097 | inhibit cell growth and promote apoptosis | 1.539 | 0.9918 | Relative Apoptotic cell (AGS cell strain [1]; listed as 7-5p): significantly higher
